3 compounds from patent US20090304712A1, “Neuronal Cell Death Inhibitor and Screening Method” (NATIONAL UNIVERSITY CORPORATION NAGOYA UNIVERSITY, priority 2006, published 2009) can be followed below.

Test [1] has as its system mouse cerebral cortex primary neurons. The experiment in a line: Neuritic beading degeneration in neurons incubated with activated microglia conditioned medium. The class given is cell-based. Conditions: for number of neurons with neuritic beading degeneration: 24 h. The procedure:
(§1) Mouse primary microglia were isolated from primary mixed glial cell cultures (obtained from newborn C57BL/6J mice brains) by the ‘shaking off’ method on the 14th culture day or later (Suzumura, A. et al. MHC antigen expression on bulk isolated macrophage-microglia from newborn mouse brain: induction of 1a antigen expression by gamma-interferon. J. Neuroimmunol. 15, 263-278 (1987)).
In addition, mouse cerebral cortex primary neurons were prepared from the cerebral cortices of C57BL/6J mice at embryonic 17th day, and were plated on poly-ethyleneimine (PEI)-coated cover slips. Neurons were used at 10th to 13th culture day (Takeuchi et al. Neuritic beading induced by activated microglia is an early feature of neuronal dysfunction toward neuronal death by inhibition of mitochondrial respiration and axonal transport. J. Biol. Chem. 280, 10444-10454 (2005)).
(§2) Microglia were cultured with the culture medium (approximately 5×10^4 cells/well, Neuron Medium (manufactured by Sumitomo Bakelite Co., LTD.) administered with 1 μg/ml of LPS or 100 ng/ml of cytokines (IL-1β, IL-6, IL-10, IFN-γ, or TNF-α), respectively. Microglia were incubated under 100% humidity and 5% CO2 at 37° C. for 24 hours. Note that as a control, microglia were cultured similarly except that no cytokine was added.
Neurons in a 24-well plate (5×10^4 cells/well) were incubated with 500 μl of conditioned medium of microglia activated as above. […]
(§3) The various neurons obtained as above were cultured for 24 hours, then, neurons in each well were measured for both the number of neurons with neuritic beading degeneration and the number of dead neurons. […] The ratio of neurons with neuritic beading degeneration was calculated as a percentage of total neurons. Note that neurons in duplicate wells were assessed blindly in three independent trials. In addition, the number of dead neurons was assessed by the dye-exclusion method with propidium iodide (PI). […] The ratio of dead neurons was calculated as a percentage of PI-positive cells among total neurons.

The test system is the same in test [2]. The experiment in a line: Dead neurons (propidium iodide dye-exclusion) in neurons incubated with activated microglia conditioned medium. Type of test: cell-based. The note with it: 24 h. The protocol: as §1
In addition, mouse cerebral cortex primary neurons were prepared from the cerebral cortices of C57BL/6J mice at embryonic 17th day, and were plated on poly-ethyleneimine (PEI)-coated cover slips. […]
as §3

For test [3], the system named is activated microglia. The experiment in a line: Glutamate concentration in neuron culture medium (glutamate released from activated microglia), colorimetric assay. The class given is cell-based, mouse. Conditions: 24 h; for extracellular glutamate concentration: versus no drug (TNF). The procedure:
as §1, §2
Neurons in a 24-well plate (5×10^4 cells/well) were incubated with 500 μl of conditioned medium of microglia activated as above. Neurons were administered similarly non-activated microglia conditioned medium to serve as a control for the indirect stimulation group. […]
In the present example, the amount of glutamate released from microglia stimulated with various cytokines, intracellular ATP concentration and mitochondrial damage in neurons incubated with conditioned medium were measured. […]
After incubation for 24 hours as above, the concentration of glutamate in the conditioned medium of each neuronal culture well was measured using Glutamate Assay Kit colorimetric assay (manufactured by Yamasa Corporation) according to the protocol thereof, measuring the absorption at 600 nm in a multiplate reader. […]
The various neurons prepared as above were cultured for 24 hours, then, glutamate concentration, the numbers of neurons with neuritic beading degeneration and dead neurons were measured for neurons in each neuronal culture well. Quantification of glutamate concentration was carried out similarly to Example 2, measurements of the numbers of neurons with neuritic beading degeneration and dead neurons were carried out similarly to Example 1. […]

The test system of test [4] is experimental autoimmune encephalomyelitis (EAE) model. Nature of the test: MOG-induced experimental autoimmune encephalomyelitis (EAE) model. Type of test: in vivo, C57BL/6J mice. The note with it: for EAE onset day (EAE clinical score becomes 1 or greater) / number of severe sick days (EAE clinical score four or greater): p<0.05.
Test [5] concerns ischemia-induced delayed neuronal cell death model. Nature of the test: Ischemia-induced delayed neuronal cell death model. Type of test: in vivo, Mongolian gerbils. The note with it: for delayed neuronal cell death (micrographs of hippocampal CA1, FIG. 15) / number of surviving neurons per 100 μm in the hippocampal CA1 region: 7 days after ischemia; for number of surviving neurons per 100 μm in the hippocampal CA1 region: p<0.001 versus control. The protocol: In the present example, the effect of gap junction inhibitor and glutaminase inhibitor on neuronal cell death was evaluated using ischemia-induced delayed neuronal cell death model. Note that all protocols were approved by the Animal Experiment Committee of Nagoya University. Note that the animal model in the present example corresponds to a model of ischemic disorder, which is a nervous system disease.
According to reference by Imai et al. (Imai F, Sawada M, Suzuki H, Zlokovic B V, Kojima J, Kuno S, Nagatsu T, Nitatori T, Uchiyama Y, Kanno T., Exogenous microglia enter the brain and migrate into ischemic hippocampal lesions. et al. Neuroscience Letter. 272 (2): 127-130. 1999)□ adult male Mongolian gerbils, 10-12 weeks old and weighing approximately 70 g, were anesthetized with sevoflurane maintaining rectal temperature at 37° C. Global forebrain ischemia was produced transiently by occluding both common carotid arteries for 5 minutes using aneurysm clips.
Administration of the gap junction inhibitor carbenoxolone (CBX) was carried out in the following three groups. That is to say, the doses were 20 mg/kg body weight (CBX1), 2 mg/kg body weight (CBX1/10) and 0.2 mg/kg body weight (CBX1/100). Administration of the glutaminase inhibitor 6-diazo-5-oxo-L norleucine (DON) was carried out in the following three groups. That is to say, the doses were 1.6 mg/kg body weight (DON1), 0.16 mg/kg body weight (DON1/10) and 0.016 mg/kg body weight (DON1/100). CBX or DON was administered intraperitoneally every other day from the day of ischemia. Note that control animals were injected with the equal volume of phosphate-buffered saline (PBS).
Seven days after ischemia, gerbils were anesthetized and transcardically perfused with 4% paraformaldehyde in PBS. The brains were removed, embedded in O.C.T. compound (manufactured by Sakura Finetech) and then frozen in liquid nitrogen. Frozen sections were prepared with a cryostat (8 μm thick), were mounted onto a slide glass and were stained with haematoxylin and eosin. To assess the effect of drug treatment on delayed neuronal death, the number of surviving neurons per 100 μm in the hippocampal CA1 region was counted under a microscope.

In test [6] the test system is connexin-32 (C×32). Nature of the test: Microglial cell surface expression of connexin-32 by flow cytometry. Type of test: cell-based, mouse. The note with it: microglia stimulated with 100 ng/ml TNF-α, 24 h. The protocol: In the present example, an analysis of LPS- or TNF-α-stimulated microglial cell surface expression of connexin-32 (C×32), which is a major constitutive component of gap junction, was carried out with a flow cytometer. The preparation of microglia was carried out similarly to Example 1, and microglia activation was carried out similarly to Example 4. To Detect C×32 anti-mouse C×32 antibody (manufactured by Chemicon) was used.
Chain of connexin-32 (C×32) (P28230 whole entry): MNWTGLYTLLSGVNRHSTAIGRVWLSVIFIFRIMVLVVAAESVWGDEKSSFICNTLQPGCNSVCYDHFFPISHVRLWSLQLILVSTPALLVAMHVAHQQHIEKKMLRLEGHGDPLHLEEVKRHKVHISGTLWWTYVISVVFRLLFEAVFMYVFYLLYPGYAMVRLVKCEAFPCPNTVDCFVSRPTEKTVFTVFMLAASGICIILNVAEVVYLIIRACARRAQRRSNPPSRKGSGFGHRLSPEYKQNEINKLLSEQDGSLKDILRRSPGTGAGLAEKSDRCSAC
On the technique in general: In flow cytometry, cells or beads pass a laser one at a time.

Test [7] relates to mouse cerebral cortex primary neurons. The experiment in a line: Neuronal mitochondrial damage, MTS assay. Type of test: cell-based. The note with it: conditioned medium of microglia treated with 100 ng/ml TNF-α; 24 h. The procedure: (§4) In the present example, the amount of glutamate released from microglia stimulated with various cytokines, intracellular ATP concentration and mitochondrial damage in neurons incubated with conditioned medium were measured. […] The evaluations were carried out by the following methods.
After incubation for 24 hours as above, the extent of neuronal mitochondria damage in each neuronal culture well was measured using CellTiter96 Aqueous One Solution assay (manufactured by Promega) according to the protocol, performing the MTS method, measuring the absorption at 490 nm in a multiplate reader. Note that the assays were carried out in six independent trials.
(Formazan colour is commonly taken as a measure of viable cells.)

For test [8] the test system is unchanged. The experiment in a line: Neuronal intracellular ATP concentration, chemiluminescent method. The class given is cell-based. The note with it: conditioned medium of microglia treated with 100 ng/ml TNF-α; 24 h. The procedure:
as §4
After incubation of the various neurons obtaine for 24 hours as above, intracellular ATP in each neuronal culture well was measured using AposSENSOR Cell Viability Assay Kit (manufactured by Bio Vision) according to the protocol thereof, by the chemiluminescent method. ATP concentration was calculated as a percentage of control.

[9] abbreviates: 1 mM DON with activated microglia conditioned medium.
The mark [10] stands for this setting: DON1: 1.6 mg/kg i.p. every other day.
Setting [11] is: DON 0.016, 0.16, 1.6 mg/kg i.p. every other day.
Setting [12] is: 100 μM CBX with activated microglia conditioned medium.
[13] abbreviates: CBX1/10: 2 mg/kg i.p. every other day.
Where [14] appears, read: CBX 0.2, 2, 20 mg/kg i.p. every other day.

With `[N-]=[N+]=CC(=O)CC[C@H](N)C(=O)O` [DON, 6-diazo-5-oxo-L-norleucine], the “number of neurons with neuritic beading degeneration” value in test [1] (setting [9]) is “inhibitory action”. Besides, in test [2] (setting [9]), the “number of dead neurons” value is “inhibitory action”. Also, in test [3] (setting [9]), the extracellular glutamate concentration result is “reduced to the control level”. Besides, the “EAE clinical symptoms (clinical score course, FIG. 17)” value in test [4] (DON 0.016, 0.16, 1.6 mg/kg i.p. every other day from day of immunization) is “inhibited”. Moreover, in test [4] (setting [10]), the “EAE onset day (EAE clinical score becomes 1 or greater)” value is on record as “significantly delayed” and the “number of severe sick days (EAE clinical score four or greater)” value is listed as “significantly reduced”. Also, the “delayed neuronal cell death (micrographs of hippocampal CA1, FIG. 15)” value in test [5] (DON 0.016, 0.16, 1.6 mg/kg body weight i.p. every other day from day of ischemia) is listed as “clearly inhibited”. In test [5] (setting [11]), the “dose dependence of decrease in neuronal death” value is recorded as “dose-dependent manner” and the “number of surviving neurons per 100 μm in the hippocampal CA1 region” value is recorded as “significantly protected”.
As to TNF-α, the “ratio of neurons with neuritic beading degeneration as a percentage of total neurons” value in test [1] (indirect stimulation: conditioned medium of microglia treated with 100 ng/ml cytokine for 24 h, neurons cultured 24 h) is listed as “approximately 100%”. In addition, in test [6], the “expression of gap junction (C×32) onto the cell surface of microglia” value was “augmented”. Besides, in test [7], the “extent of mitochondrial damage (MTS)” value is listed as “significantly mild”. For the same compound, the “glutamate concentration in neuron culture medium” value in test [3] (conditioned medium of microglia treated with 100 ng/ml TNF-α) was “significantly high concentration”. The “neuronal intracellular ATP concentration” value in test [8] was “significantly low”.
On to `CC1(C)[C@@H](OC(=O)CCC(=O)O)CC[C@]2(C)[C@H]3C(=O)C=C4[C@@H]5C[C@@](C)(C(=O)O)CC[C@]5(C)CC[C@@]4(C)[C@]3(C)CC[C@@H]12` [CBX, carbenoxolone disodium], for which the “number of neurons with neuritic beading degeneration” value in test [1] (setting [12]) is “inhibitory action”. Moreover, the “number of dead neurons” value in test [2] (setting [12]) was “inhibitory action”. In addition, in test [3] (setting [12]), the extracellular glutamate concentration result was “reduced to the control level”. In addition, the “EAE clinical symptoms (clinical score course, FIG. 17)” value in test [4] (CBX 0.2, 2, 20 mg/kg i.p. every other day from day of immunization) is “inhibited”. Further, in test [4] (setting [13]), the peak clinical score entry is recorded as “significantly decreased”, the “EAE onset day (EAE clinical score becomes 1 or greater)” value is given as “significantly delayed” and the “number of severe sick days (EAE clinical score four or greater)” value is on record as “significantly reduced”. The “delayed neuronal cell death (micrographs of hippocampal CA1, FIG. 15)” value in test [5] (CBX 0.2, 2, 20 mg/kg body weight i.p. every other day from day of ischemia) is “clearly inhibited”. Besides, in test [5] (setting [14]), the “dose dependence of decrease in neuronal death” value is “dose-dependent manner” and the “number of surviving neurons per 100 μm in the hippocampal CA1 region” value is “significantly protected”.
